From paper PMC11435248, “Auraptene Boosts the Efficacy of the Tamoxifen Metabolites Endoxifen and 4-OH-Tamoxifen in a Chemoresistant ER+ Breast Cancer Model” (Pharmaceutics, 2024)

Molecular target: T1, eIF4A1 (Homo sapiens, UniProt P60842)
T1 construct: recombinant eIF4A1 from pET19bm, 10-histidine tract at the N-terminal with Prescission Protease site, expressed in E. coli Rosetta Star
Assay: fluorescence quenching of purified recombinant eIF4A ([…] auraptene)
Type: binding

T1 sequence (P60842 2-406): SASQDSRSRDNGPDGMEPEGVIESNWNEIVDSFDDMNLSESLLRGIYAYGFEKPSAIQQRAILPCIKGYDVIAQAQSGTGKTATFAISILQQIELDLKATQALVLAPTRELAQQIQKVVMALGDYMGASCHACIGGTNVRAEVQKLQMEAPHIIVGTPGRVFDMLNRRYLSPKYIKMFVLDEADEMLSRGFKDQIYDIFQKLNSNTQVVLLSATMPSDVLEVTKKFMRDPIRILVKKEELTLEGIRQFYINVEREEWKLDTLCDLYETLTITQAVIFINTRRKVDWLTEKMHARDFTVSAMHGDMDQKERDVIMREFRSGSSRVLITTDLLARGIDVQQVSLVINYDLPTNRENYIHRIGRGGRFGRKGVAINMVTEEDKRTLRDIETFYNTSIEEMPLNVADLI

CC(C)=CCC/C(C)=C/COc1ccc2ccc(=O)oc2c1 [Aur, auraptene]
fluorescence quenching of purified recombinant eIF4A (50 and 100 μM auraptene): a reduction in the emission intensity was observed, resulting from a quenching phenomenon, suggesting that auraptene binds with the eIF4A
